# ChEMBL document CHEMBL4765469, “2-((3,5-Dinitrobenzyl)thio)quinazolinones: Potent Antimycobacterial Agents Activated by Deazaflavin (F)-Dependent Nitroreductase (Ddn)” (J Med Chem, 2021)
# Calls of active or inactive are those of the source. The rule behind the calls is not given here.
# Experiments:
# [1] = system: Mycobacterium tuberculosis; experiment: Antitubercular activity against Mycobacterium tuberculosis resistant mutants generated by plating on 7H11/0ADC agar plates in presence of 3.75 to 15 uM 2-((3,5-Dinitrobenzyl)thio)quinazolin-4(3H)-one followed by sensitivity testing; format: functional, organism-based
# [2] = system: Mycobacterium tuberculosis; experiment: Antitubercular activity against Mycobacterium tuberculosis T3 with fgd mutant deficient in F420 reduction assessed as inhibition of all visible growth grown under 7H9/ glucose liquid culture incubated for 7 to 14 days; format: functional; conditions: time 7-14 day
# [3] = system: Mycobacterium tuberculosis; experiment: Antitubercular activity against Mycobacterium tuberculosis 5A1 with fbiC mutant deficient in cofactor F420 biosynthesis assessed as inhibition of all visible growth grown under 7H9/ glucose liquid culture incubated for 7 to 14 days; format: functional; conditions: time 7-14 day
# [4] = system: Mycobacterium tuberculosis; experiment: Antitubercular activity against Mycobacterium tuberculosis T2 expressing nitroreductase rv3547 A76E mutant assessed as inhibition of all visible growth grown under 7H9/ glucose liquid culture incubated for 7 to 14 days; format: functional; conditions: time 7-14 day
# [5] = Ratio of MIC for antitubercular activity against Mycobacterium tuberculosis resistant mutants generated by plating on 7H11/0ADC agar plates in presence of 3.75 to 15 uM 2-((3,5-Dinitrobenzyl)thio)quinazolin-4(3H)-one to MIC for antitubercular activity against wild type Mycobacterium tuberculosis H37Rv ATCC 27294; format: functional
SMILES,Activity [1],MIC>99 [2],MIC>99 [3],MIC>99 [4],Ratio [5]
C[C@]1(COc2ccc(N3CCC(Oc4ccc(OC(F)(F)F)cc4)CC3)cc2)Cn2cc([N+](=O)[O-])nc2O1,inactive,–,–,–,–
O=c1[nH]c(SCc2cc([N+](=O)[O-])cc([N+](=O)[O-])c2)nc2ccc(Br)cc12,–,>50 µM,>50 µM,>50 µM,–
NNC(=O)c1ccncc1,Active,–,–,–,–
O=[N+]([O-])c1cn2c(n1)OC[C@@H](OCc1ccc(OC(F)(F)F)cc1)C2,inactive,–,–,–,–
Cc1ccc2nc(SCc3cc([N+](=O)[O-])cc([N+](=O)[O-])c3)[nH]c(=O)c2c1,–,>50 µM,>50 µM,>50 µM,–
O=c1[nH]c(SCc2cc([N+](=O)[O-])cc([N+](=O)[O-])c2)nc2cccnc12,–,37 µM,37 µM,50 µM,–
CO[C@H]1/C=C/O[C@@]2(C)Oc3c(C)c(O)c4c(O)c(c(/C=N/N5CCN(C)CC5)c(O)c4c3C2=O)NC(=O)/C(C)=C\C=C\[C@H](C)[C@H](O)[C@@H](C)[C@@H](O)[C@@H](C)[C@H](OC(C)=O)[C@@H]1C,Active,–,–,–,–
O=c1[nH]c(SCc2cc([N+](=O)[O-])cc([N+](=O)[O-])c2)nc2ccc(F)cc12,–,>=50 uM,>50 µM,>=50 uM,–
O=c1[nH]c(SCc2cc([N+](=O)[O-])cc([N+](=O)[O-])c2)nc2ccccc12,–,37 µM,>50 µM,37 µM,> 40
O=c1[nH]c(SCc2cc([N+](=O)[O-])cc([N+](=O)[O-])c2)nc2ccc(N3CCOCC3)cc12,–,>=50 uM,>=50 uM,19 µM,–
CN1CCN(c2ccc3nc(SCc4cc([N+](=O)[O-])cc([N+](=O)[O-])c4)[nH]c(=O)c3c2)CC1,–,25 µM,37 µM,37 µM,–
